In patent publication EP0761679A1, “N-Butylsulfonate esters of estrogens” (ELI LILLY AND COMPANY, priority 1995, dated 1997):

Tested on: ovariectomized rat
Experiment: ovariectomized (ovex) rat model, uterine wet weight after four days of oral treatment
Format: in vivo, Sprague Dawley rats
Details: 96 h, 0.1 mg/kg P.O. (gavage in 0.5 mL of 1% carboxymethylcellulose suspension), ovariectomized female rats, read-out: Uterine weight as percent control @ 0.1 mg/kg P.O.
Procedure: Seventy-five day old female Sprague Dawley rats (weight range of 225-275 g) were obtained from Charles River Laboratories (Portage, MI). The animals were either bilaterally ovariectomized or exposed to a sham surgical procedure at Charles River Laboratories, and then shipped after one week. They were housed in groups of three and had ad libitum access to food and water. Room temperature was maintained at 22.2° C with 40% relative humidity. The photo-period was 12 hours of light and 12 hours of darkness. One week after arrival (thus, 14 days post-ovariectomy), the rats were treated with vehicle, 17-α-ethinyl estradiol, parent hydroxy estrogens, or a compound of formula I was initiated. After four days of treatment, blood was collected by cardiac puncture, the animals were sacrificed by carbon dioxide asphyxiation and the uteri were removed and wet weight determined. […] All compounds were given by oral dosage (gavage in 0.5 mL of 1% carboxymethylcellulose suspension). For comparison purposes, the data represented are for 0.1 mg/kg for all compounds. The positive control was 0.1 mg/kg of 17-α-ethinyl estradiol, a known, orally available estrogen.

Going from `CCCCS(=O)(=O)Oc1ccc2c(c1)CC[C@@H]1[C@@H]2CC[C@]2(C)[C@@H](OS(=O)(=O)CCCC)CC[C@@H]12` [3,17-β-di-n-butylsulfonoyl estradiol] to `C[C@]12CC[C@@H]3c4ccc(OS(C)(=O)=O)cc4CC[C@H]3[C@@H]1CC[C@@H]2OS(C)(=O)=O` [3,17-β-di-methanesulfonoyl estradiol], the response vs control in vivo at 0.1 mg/kg falls from 112% to 0%.

Compared with `CCCCS(=O)(=O)Oc1ccc2c(c1)CC[C@@H]1[C@@H]2CC[C@]2(C)C(=O)CC[C@@H]12` [3-n-butylsulfonyl estrone, 3-n-butylsulfonoyl estrone], `C[C@]12CC[C@@H]3c4ccc(OS(C)(=O)=O)cc4CC[C@H]3[C@@H]1CCC2=O` [3-methanesulfonoyl estrone] is lower in response vs control in vivo at 0.1 mg/kg: 67% for the first, 0% for the second.

First: C[C@]12CC[C@H]3C(=CCc4cc(O)ccc43)[C@@H]1CCC2=O [Equilin]
Second: CCCCS(=O)(=O)Oc1ccc2c(c1)CC=C1[C@@H]2CC[C@]2(C)C(=O)CC[C@@H]12 [3-n-butylsulfonoyl equilin]
The response vs control in vivo at 0.1 mg/kg of the first is lower: 47% for the first, 119% for the second.

Going from `C[C@]12CC[C@@H]3c4ccc(O)cc4CC[C@H]3[C@@H]1CCC2=O` [Estrone] to `C[C@]12CC[C@@H]3c4ccc(O)cc4CC[C@H]3[C@@H]1CC[C@@H]2O` [17-β-estradiol], the response vs control in vivo at 0.1 mg/kg rises from 35% to 43%.

Going from `C[C@]12CC[C@@H]3c4ccc(OS(C)(=O)=O)cc4CC[C@H]3[C@@H]1CC[C@@H]2O` [3-methanesulfonoyl-17-β-estradiol] to `C[C@]12CC[C@@H]3c4ccc(OS(=O)(=O)c5ccccc5)cc4CC[C@H]3[C@@H]1CC[C@@H]2O` [3-phenylsulfonoyl-17-β-estradiol], the response vs control in vivo at 0.1 mg/kg falls from 17% to 0%.

`C[C@]12CC[C@@H]3c4ccc(OS(=O)(=O)c5ccccc5)cc4CC[C@H]3[C@@H]1CCC2=O` [3-phenylsulfonoyl estrone] gave a response vs control in vivo at 0.1 mg/kg of 10%.
